Measured values: US20230192661A1, “1, 4, 5, 6-TETRAHYDROPYRIMIDINE-2-AMINE DERIVATIVE” (UBE Corporation, priority 2020, published 2023)

How the values were obtained:
[1] = Transcellular transport test using Caco2 cell; format: in vitro ADME; conditions: human, Caco-2; Caco2 monolayer, A-to-B, 10 μM compound, pH 7.4, 90 minutes
Description: Caco2 cells (purchased from ATCC) were cultured in DMEM medium (Thermo Fisher Scientific, Inc., 11965) containing 10% FBS (Thermo Fisher Scientific, Inc., 10082) and 1% penicillin/streptomycin/amphotericin B (Thermo Fisher Scientific, Inc., 15240). A transcellular transport test was carried out in accordance with MultiScreen Caco2 Drug Transport Assembly in a 96-well system (Application Note AN1727EN, MultiScreen Caco-2 Assay System, Merck) by partially modifying it. The Caco2 cells were inoculated at a cell density of 4×10^4 cells/well onto a micropore polycarbonate insert of a 96-well plate (Merck, Millcell-96 culture insert plate 0.4 μm pore size, well membrane area=0.11 cm^2, PSHT004S5) and cultured for 20 to 22 days, and the resulting monolayer was used in the transcellular transport test. The medium of the inoculated cells was replaced with a fresh one every 3 to 4 days.
Apical-to-basolateral (A-to-B) transport in the Caco2 cell monolayer membrane was performed by using HBSS (Thermo Fisher Scientific, Inc., 14025) medium (pH=7.4) containing 20 mM HEPES (Thermo Fisher Scientific, Inc., 15630), and adding HEPES-containing HBSS medium containing 10 μM compound (a 10 mM solution of the compound in DMSO was added at a 1000-fold dilution; final DMSO concentration: 0.1%) at 75 μL/well to the apical side and HEPES-containing HBSS medium supplemented with no compound at 250 μL/well to the basolateral side, followed by culture at 37° C. for 90 minutes. After culture, a 100 μL aliquot was collected from the basolateral side, and the concentration of a permeated compound was measured by LC-MS/MS under measurement conditions mentioned later. Papp (apparent permeability; cm/sec) was calculated from the determined concentration. Papp was determined according to the expression given below by calculating the slope (dA/dt; nmol/sec) of a straight line drawn between two points 0 minutes and zero amount of the compound in a graph plotted with an assay time (90 min) on the abscissa against the amount of the compound in the solution on the permeated side on the ordinate. As for an assay concentration, the concentration in the compound in the HEPES-containing HBSS medium containing the added compound was measured by UV-HPLC under measurement conditions mentioned later.
Papp (cm/sec)=C0×S×(dA/dt)
C0: assay concentration, S: plate membrane area=0.11 cm^2

[2] = test system: Human hepatic stellate cells; assay: Active human hepatic stellate cell dedifferentiation test (decrease in ACTA2 mRNA expression); format: cell-based; conditions: 3 days differentiation then 2 days with compound, read-out: IC50 (rate of decrease in ACTA2 mRNA expression)
Description: Human hepatic stellate cells (manufactured by ScienCell Research Laboratories, Inc., 5300) were suspended in DMEM containing 10% FBS and […] penicillin/streptomycin/amphotericin B to prepare a cell suspension of 0.5×10^5 cells/mL, which was regarded as cells at the start of differentiation. The cells at the start of differentiation were dispensed at 1 mL/well to a 12-well plate and cultured, for differentiation, for 3 days in a 5% CO2 incubator (37° C.).
The culture solution in each well was removed, and DMEM containing 10% FBS and 1% penicillin/streptomycin/amphotericin B supplemented with a test compound dissolved in DMSO (final DMSO concentration: 0.1%) was added at 1 mL/well. The resultant was further cultured for 2 days in a 5% CO2 incubator (37° C.). In Test Example 4, the same reagents as in Test Example 1 were used unless otherwise specified.
RNA in the cultured cells was extracted using NucleoSpin® RNA (manufactured by Takara Bio Inc., U0955C), and cDNA was further synthesized from the extracted RNA using Prime Script™ RT reagent Kit with gDNA Eraser (manufactured by Takara Bio Inc., RR047A). Real time PCR was performed using the synthesized cDNA, various primers and TB Green® Premix Ex Taq™ II (manufactured by Takara Bio Inc., RR820A) and using PCR Thermal Cycler Dice Real Time (manufactured by Takara Bio Inc., System Code TP910, Model Code TP900). The primers used were actin alpha 2, smooth muscle (ACTA2) primer (manufactured by Takara Bio Inc., HA136273) and glyceraldehyde-3-phosphate dehydrogenase (GAPDH) primer (manufactured by Takara Bio Inc., HA067812).
The amplification curve of PCR was analyzed by the comparative Ct method. The expression level of ACTA2 mRNA was corrected with the expression level of GAPDH mRNA. An ACTA2 mRNA expression level when DMSO was added instead of the test compound was defined as 100%, and an ACTA2 mRNA expression level in the cells at the start of differentiation was defined as 0%. The rate of decrease in ACTA2 mRNA expression by the test compound was calculated according to the following expression.
Rate of decrease in ACTA2 mRNA expression (%)=[1−{(ACTA2 mRNA expression level in the case of adding the test compound)−(ACTA2 mRNA expression level in the cells at the start of differentiation)}/{(ACTA2 mRNA expression level in the case of adding DMSO)−(ACTA2 mRNA expression level in the cells at the start of differentiation)}]×100
An IC50 value was calculated from the rate of decrease in ACTA2 mRNA expression by the test compound. A: IC50<10 nM, B: 10 nM≤IC50<50 nM, C: 50 nM≤IC50<100 nM, or D: IC50≥100 nM.

SMILES | Papp A→B at 90 min, 10 μM [1] | IC50 [2]
O=C(O)C[C@H](NC(=O)CNC(=O)c1cc(NC2=NCC(F)CN2)c2cn[nH]c2c1)c1cc(Cl)cc(C(F)(F)F)c1 (stereo partly drawn) [Example 1-(b), (3S)-3-(3-chloro-5-(trifluoromethyl)phenyl)-3-(2-(4-((5-fluoro-1,4,5,6-tetrahydropyrimidin-2-yl)amino)-1H-indazole-6-carboxamido)acetamido)propanoic acid] | > 1 ×10⁻⁶ cm/s | < 10 nM
O=C(O)C[C@H](NC(=O)CNC(=O)c1cc(NC2=NCC(F)CN2)c2cn[nH]c2c1)c1cc(Br)cc(C(F)(F)F)c1 (stereo partly drawn) [Example 2-(b), (3S)-3-(3-bromo-5-(trifluoromethyl)phenyl)-3-(2-(4-((5-fluoro-1,4,5,6-tetrahydropyrimidin-2-yl)amino)-1H-indazole-6-carboxamido)acetamido)propanoic acid] | 0.5 to 1 ×10⁻⁶ cm/s | 10 to 50 nM
O=C(O)C[C@H](NC(=O)CNC(=O)c1cc(NC2=NCC(F)CN2)c2cn[nH]c2c1)c1cc(I)cc(C(F)(F)F)c1 (stereo partly drawn) [Example 3-(b), (3S)-3-(2-(4-((5-fluoro-1,4,5,6-tetrahydropyrimidin-2-yl)amino)-1H-indazole-6-carboxamido)acetamido)-3-(3-iodo-5-(trifluoromethyl)phenyl)propanoic acid] | > 1 ×10⁻⁶ cm/s | 10 to 50 nM
Cc1cc([C@H](CC(=O)O)NC(=O)CNC(=O)c2cc(NC3=NCC(F)CN3)c3cn[nH]c3c2)cc(C(F)(F)F)c1 (stereo partly drawn) [Example 4-(b), (3S)-3-(2-(4-((5-fluoro-1,4,5,6-tetrahydropyrimidin-2-yl)amino)-1H-indazole-6-carboxamido)acetamido)-3-(3-methyl-5-(trifluoromethyl)phenyl)propanoic acid] | > 1 ×10⁻⁶ cm/s | 10 to 50 nM
COc1cc([C@H](CC(=O)O)NC(=O)CNC(=O)c2cc(NC3=NCC(F)CN3)c3cn[nH]c3c2)cc(C(F)(F)F)c1 (stereo partly drawn) [Example 5-(b), (3S)-3-(2-(4-((5-fluoro-1,4,5,6-tetrahydropyrimidin-2-yl)amino)-1H-indazole-6-carboxamido)acetamido)-3-(3-methoxy-5-(trifluoromethyl)phenyl)propanoic acid] | 0.5 to 1 ×10⁻⁶ cm/s | < 10 nM
O=C(O)C[C@H](NC(=O)CNC(=O)c1cc(NC2=NCC(F)CN2)c2cn[nH]c2c1)c1cc(F)cc(C(F)(F)F)c1 (stereo partly drawn) [Example 6-(b), (3S)-3-(2-(4-((5-fluoro-1,4,5,6-tetrahydropyrimidin-2-yl)amino)-1H-indazole-6-carboxamido)acetamido)-3-(3-fluoro-5-(trifluoromethyl)phenyl)propanoic acid] | > 1 ×10⁻⁶ cm/s | 10 to 50 nM
O=C(O)C[C@H](NC(=O)CNC(=O)c1cc(NC2=NCC(F)CN2)c2cn[nH]c2c1)c1cc(Cl)ccc1F (stereo partly drawn) [Example 22-(b), (3S)-3-(5-chloro-2-fluorophenyl)-3-(2-(4-((5-fluoro-1,4,5,6-tetrahydropyrimidin-2-yl)amino)-1H-indazole-6-carboxamido)acetamido)propanoic acid] | > 1 ×10⁻⁶ cm/s | –
O=C(O)C[C@H](NC(=O)CNC(=O)c1cc(NC2=NCC(F)CN2)c2cn[nH]c2c1)c1cc(Br)ccc1F (stereo partly drawn) [Example 23-(b), (3S)-3-(5-bromo-2-fluorophenyl)-3-(2-(4-((5-fluoro-1,4,5,6-tetrahydropyrimidin-2-yl)amino)-1H-indazole-6-carboxamido)acetamido)propanoic acid] | > 1 ×10⁻⁶ cm/s | –
O=C(O)C[C@H](NC(=O)CNC(=O)c1cc(NC2=NCC(F)CN2)c2cn[nH]c2c1)c1ccc(F)c(OC(F)F)c1 (stereo partly drawn) [Example 27-(b), (3S)-3-(3-(difluoromethoxy)-4-fluorophenyl)-3-(2-(4-((5-fluoro-1,4,5,6-tetrahydropyrimidin-2-yl)amino)-1H-indazole-6-carboxamido)acetamido)propanoic acid] | > 1 ×10⁻⁶ cm/s | –
O=C(O)C[C@H](NC(=O)CNC(=O)c1cc(NC2=NCC(F)CN2)c2cn[nH]c2c1)c1cc(OC(F)F)cc(-n2cccn2)c1 (stereo partly drawn) [Example 29-(b), (3S)-3-(3-(difluoromethoxy)-5-(1H-pyrazol-1-yl)phenyl)-3-(2-(4-((5-fluoro-1,4,5,6-tetrahydropyrimidin-2-yl)amino)-1H-indazole-6-carboxamido)acetamido)propanoic acid] | 0.1 to 0.5 ×10⁻⁶ cm/s | –
Cc1cc(C)n(-c2cccc([C@H](CC(=O)O)NC(=O)CNC(=O)c3cc(NC4=NCC(F)CN4)c4cn[nH]c4c3)c2)n1 (stereo partly drawn) [Example 44-(b), (3S)-3-(3-(3,5-dimethyl-1H-pyrazol-1-yl)phenyl)-3-(2-(4-((5-fluoro-1,4,5,6-tetrahydropyrimidin-2-yl)amino)-1H-indazole-6-carboxamido)acetamido)propanoic acid] | 0.5 to 1 ×10⁻⁶ cm/s | –
O=C(O)C[C@H](NC(=O)CNC(=O)c1cc(NC2=NCC(F)CN2)c2cn[nH]c2c1)c1cccc(N2CCOCC2)c1 (stereo partly drawn) [Example 45-(b), (3S)-3-(2-(4-((5-fluoro-1,4,5,6-tetrahydropyrimidin-2-yl)amino)-1H-indazole-6-carboxamido)acetamido)-3-(3-morpholinophenyl)propanoic acid] | 0.5 to 1 ×10⁻⁶ cm/s | –
O=C(O)C[C@H](NC(=O)CNC(=O)c1cc(NC2=NCC(F)CN2)c2cn[nH]c2c1)c1ccc(OC(F)F)cc1 (stereo partly drawn) [Example 46-(b), (3S)-3-(4-(difluoromethoxy)phenyl)-3-(2-(4-((5-fluoro-1,4,5,6-tetrahydropyrimidin-2-yl)amino)-1H-indazole-6-carboxamido)acetamido)propanoic acid] | > 1 ×10⁻⁶ cm/s | –
O=C(O)C[C@H](NC(=O)CNC(=O)c1cc(NC2=NCC(F)CN2)c2cn[nH]c2c1)c1ccc(C(F)(F)F)cc1 (stereo partly drawn) [Example 47-(b), (3S)-3-(2-(4-((5-fluoro-1,4,5,6-tetrahydropyrimidin-2-yl)amino)-1H-indazole-6-carboxamido)acetamido)-3-(4-(trifluoromethyl)phenyl)propanoic acid] | > 1 ×10⁻⁶ cm/s | –
O=C(O)C[C@H](NC(=O)CNC(=O)c1cc(NC2=NCC(O)CN2)c2cn[nH]c2c1)c1cc(Cl)cc(C(F)(F)F)c1 (stereo partly drawn) [Example 50-(b), (3S)-3-(3-chloro-5-(trifluoromethyl)phenyl)-3-(2-(4-((5-hydroxy-1,4,5,6-tetrahydropyrimidin-2-yl)amino)-1H-indazole-6-carboxamido)acetamido)propanoic acid] | > 1 ×10⁻⁶ cm/s | –
O=C(O)C[C@H](NC(=O)CNC(=O)c1cc(NC2=NCCCN2)c2cn[nH]c2c1)c1cc(Cl)cc(C(F)(F)F)c1 [Example 51-(b), (S)-3-(3-chloro-5-(trifluoromethyl)phenyl)-3-(2-(4-((1,4,5,6-tetrahydropyrimidin-2-yl)amino)-1H-indazole-6-carboxamido)acetamido)propanoic acid] | > 1 ×10⁻⁶ cm/s | –
